Results published in ChEMBL document CHEMBL2375302, “Synthesis, antimicrobial, antiquorum-sensing, antitumor and cytotoxic activities of new series of fused [1,3,4]thiadiazoles” (Eur J Med Chem, 2013).
In brackets after ≈: the same amount, converted by molar mass.

Legend:
DU-145 = experiment: Growth inhibition of human DU145 cells at 10 uM after 48 hrs by coulter counter analysis relative to control; type: functional; conditions: DU-145, 48 h, read-out: GI
MDA-MB-468 = experiment: Growth inhibition of human MDA-MB-468 cells at 10 uM after 48 hrs by coulter counter analysis relative to control; type: functional; conditions: MDA-MB-468, 48 h, read-out: GI
SK-MEL-5 = experiment: Growth inhibition of human SK-MEL-5 cells at 10 uM after 48 hrs by coulter counter analysis relative to control; type: functional; conditions: SK-MEL-5, 48 h, read-out: GI
[1] = Toxicity against brine shrimp larvae assessed as mortality at 1000 ug/mL after 24 hrs by binocular microscopic analysis relative to control; type: organism-based; conditions: artemia salina, in vivo
UACC-62 = experiment: Growth inhibition of human UACC62 cells at 10 uM after 48 hrs by coulter counter analysis relative to control; type: functional; conditions: UACC-62, 48 h, read-out: GI
SR = experiment: Growth inhibition of human SR cells at 10 uM after 48 hrs by coulter counter analysis relative to control; type: functional; conditions: read-out: GI
[2] = test system: Chromobacterium violaceum; experiment: Antiquorum-sensing activity against Chromobacterium violaceum ATCC 12472 after 48 hrs; type: functional
SK-MEL-28 = experiment: Growth inhibition of human SK-MEL-28 cells at 10 uM after 48 hrs by coulter counter analysis relative to control; type: functional; conditions: SK-MEL-28, 48 h, read-out: GI
HOP-92 = experiment: Growth inhibition of human HOP92 cells at 10 uM after 48 hrs by coulter counter analysis relative to control; type: functional; conditions: HOP-92, 48 h, read-out: GI
786-0 = experiment: Growth inhibition of human 786-0 cells at 10 uM after 48 hrs by coulter counter analysis relative to control; type: functional; conditions: 786-0, 48 h, read-out: GI
Hs-578T = experiment: Growth inhibition of human Hs578T cells at 10 uM after 48 hrs by coulter counter analysis relative to control; type: functional; conditions: read-out: GI
MOLT-4 = experiment: Growth inhibition of human MOLT4 cells at 10 uM after 48 hrs by coulter counter analysis relative to control; type: functional; conditions: MOLT-4, 48 h, read-out: GI
[3] = Toxicity against brine shrimp larvae assessed as mortality at 10 ug/mL after 24 hrs by binocular microscopic analysis relative to control; type: organism-based; conditions: artemia salina, in vivo
UO-31 = experiment: Growth inhibition of human UO31 cells at 10 uM after 48 hrs by coulter counter analysis relative to control; type: functional; conditions: UO-31, 48 h, read-out: GI
MDA-MB-435 = experiment: Growth inhibition of human MDA-MB-435 cells at 10 uM after 48 hrs by coulter counter analysis relative to control; type: functional; conditions: MDA-MB-435, 48 h, read-out: GI
RPMI-8226 = experiment: Growth inhibition of human RPMI8226 cells at 10 uM after 48 hrs by coulter counter analysis relative to control; type: functional; conditions: RPMI-8226, 48 h, read-out: GI
M14 = experiment: Growth inhibition of human M14 cells at 10 uM after 48 hrs by coulter counter analysis relative to control; type: functional; conditions: M14, 48 h, read-out: GI
SW-620 = experiment: Growth inhibition of human SW620 cells at 10 uM after 48 hrs by coulter counter analysis relative to control; type: functional; conditions: SW-620, 48 h, read-out: GI
SK-MEL-2 = experiment: Growth inhibition of human SK-MEL-2 cells at 10 uM after 48 hrs by coulter counter analysis relative to control; type: functional; conditions: SK-MEL-2, 48 h, read-out: GI
Malme-3M = experiment: Growth inhibition of human MALME-3M cells at 10 uM after 48 hrs by coulter counter analysis relative to control; type: functional; conditions: read-out: GI
RXF 393 = experiment: Growth inhibition of human RXF393 cells at 10 uM after 48 hrs by coulter counter analysis relative to control; type: functional; conditions: RXF 393, 48 h, read-out: GI
[4] = Growth inhibition of human HCC2998 cells at 10 uM after 48 hrs by coulter counter analysis relative to control; type: functional; conditions: HCC 2998, 48 h, read-out: GI
OVCAR-4 = experiment: Growth inhibition of human OVCAR4 cells at 10 uM after 48 hrs by coulter counter analysis relative to control; type: functional; conditions: OVCAR-4, 48 h, read-out: GI
SNB-19 = experiment: Growth inhibition of human SNB19 cells at 10 uM after 48 hrs by coulter counter analysis relative to control; type: functional; conditions: SNB-19, 48 h, read-out: GI
SF-295 = experiment: Growth inhibition of human SF295 cells at 10 uM after 48 hrs by coulter counter analysis relative to control; type: functional; conditions: SF-295, 48 h, read-out: GI
BT-549 = experiment: Growth inhibition of human BT549 cells at 10 uM after 48 hrs by coulter counter analysis relative to control; type: functional; conditions: BT-549, 48 h, read-out: GI
IGROV-1 = experiment: Growth inhibition of human IGROV1 cells at 10 uM after 48 hrs by coulter counter analysis relative to control; type: functional; conditions: IGROV-1, 48 h, read-out: GI
Escherichia coli = experiment: Antibacterial activity against Escherichia coli at 5 mg/mL after 24 hrs; type: functional; conditions: read-out: DIZ
Aspergillus flavus = experiment: Antifungal activity against Aspergillus flavus 3372 at 5 mg/mL after 48 hrs; type: functional; conditions: Aspergillus flavus, 3372, 48 h; read-out: DIZ
SF-268 = experiment: Growth inhibition of human SF268 cells at 10 uM after 48 hrs by coulter counter analysis relative to control; type: functional; conditions: SF-268, 48 h, read-out: GI
HL-60(TB) = experiment: Growth inhibition of human HL-60(TB) cells at 10 uM after 48 hrs by coulter counter analysis relative to control; type: functional; conditions: HL-60, 48 h, read-out: GI
HCT-15 = experiment: Growth inhibition of human HCT15 cells at 10 uM after 48 hrs by coulter counter analysis relative to control; type: functional; conditions: HCT-15, 48 h, read-out: GI
[5] = Growth inhibition of human NCI-ADR-RES cells at 10 uM after 48 hrs by coulter counter analysis relative to control; type: functional; conditions: read-out: GI
OVCAR-5 = experiment: Growth inhibition of human OVCAR5 cells at 10 uM after 48 hrs by coulter counter analysis relative to control; type: functional; conditions: OVCAR-5, 48 h, read-out: GI
[6] = Toxicity against brine shrimp larvae assessed as mortality at 100 ug/mL after 24 hrs by binocular microscopic analysis relative to control; type: organism-based; conditions: artemia salina, in vivo
Artemia salina = experiment: (§1) Toxicity against brine shrimp larvae assessed as mortality after 24 hrs by binocular microscopic analysis; type: organism-based; conditions: in vivo, 24 h
[7] = as §1; type: organism-based; conditions: artemia salina, in vivo
A549 = experiment: Growth inhibition of human A549 cells at 10 uM after 48 hrs by coulter counter analysis relative to control; type: functional; conditions: A549, 48 h, read-out: GI
CAKI-1 = experiment: Growth inhibition of human CAKI-1 cells at 10 uM after 48 hrs by coulter counter analysis relative to control; type: functional; conditions: CAKI-1, 48 h, read-out: GI
SN12C = experiment: Growth inhibition of human SN12C cells at 10 uM after 48 hrs by coulter counter analysis relative to control; type: functional; conditions: read-out: GI

Row | Structure (SMILES) | inhibition of growth at 10 µM (DU-145) [%] | inhibition of growth at 10 µM (MDA-MB-468) [%] | inhibition of growth at 10 µM (SK-MEL-5) [%] | mortality at 24 h, 1000 ug/mL [1] [%] | inhibition of growth at 10 µM (UACC-62) [%] | inhibition of growth at 10 µM (SR) [%] | diameter of the inhibition zone (DIZ) [2] [mm] | inhibition of growth at 10 µM (SK-MEL-28) [%] | inhibition of growth at 10 µM (HOP-92) [%] | inhibition of growth at 10 µM (786-0) [%] | inhibition of growth at 10 µM (Hs-578T) [%] | inhibition of growth at 10 µM (MOLT-4) [%] | mortality at 24 h, 10 ug/mL [3] [%] | inhibition of growth at 10 µM (UO-31) [%] | inhibition of growth at 10 µM (MDA-MB-435) [%] | inhibition of growth at 10 µM (RPMI-8226) [%] | inhibition of growth at 10 µM (M14) [%] | inhibition of growth at 10 µM (SW-620) [%] | inhibition of growth at 10 µM (SK-MEL-2) [%] | inhibition of growth at 10 µM (Malme-3M) [%] | also measured
1 | CCOC(=O)C1C(=O)N=C2SC(S(N)(=O)=O)=NN2C1c1ccc(N(C)C)cc1 (stereo not given) | < 10 | < 10 | < 10 | 100 | 13.7 | 10.3 | <2 | < 10 | 51.2 | < 10 | 18.5 | < 10 | 66.6 | 14.7 | 21.3 | < 10 | < 10 | < 10 | < 10 | 14.9 | inhibition of growth at 10 µM (RXF 393): < 10%; inhibition of growth at 10 µM [4]: < 10%; inhibition of growth at 10 µM (OVCAR-4): < 10%; inhibition of growth at 10 µM (SNB-19): < 10%; inhibition of growth at 10 µM (SF-295): < 10%; inhibition of growth at 10 µM (BT-549): < 10%; inhibition of growth at 10 µM (IGROV-1): < 10%; zone of inhibition at 5000 µg/mL (Escherichia coli): < 2 mm; zone of inhibition at 5000 µg/mL (Aspergillus flavus): < 2 mm; inhibition of growth at 10 µM (SF-268): < 10%; inhibition of growth at 10 µM (HL-60(TB)): 21%; inhibition of growth at 10 µM (HCT-15): < 10%; inhibition of growth at 10 µM [5]: < 10%; inhibition of growth at 10 µM (OVCAR-5): < 10%; mortality at 24 h, 100 ug/mL [6]: 83.3%; LC90 (Artemia salina): 728.74 µg/mL (≈ 1710 µM); LC50 at 24 h [7]: 405 µg/mL (≈ 951 µM); inhibition of growth at 10 µM (A549): < 10%; inhibition of growth at 10 µM (CAKI-1): 21.1%; inhibition of growth at 10 µM (SN12C): < 10%
2 | N#Cc1cnc2sc(S(N)(=O)=O)nn2c1=O | < 10 | < 10 | < 10 | 96.6 | < 10 | < 10 | 10 | < 10 | 12.3 | < 10 | 12.8 | < 10 | 50 | 10.5 | < 10 | < 10 | < 10 | < 10 | < 10 | 28 | inhibition of growth at 10 µM (RXF 393): < 10%; inhibition of growth at 10 µM [4]: < 10%; inhibition of growth at 10 µM (OVCAR-4): < 10%; inhibition of growth at 10 µM (SNB-19): < 10%; inhibition of growth at 10 µM (SF-295): < 10%; inhibition of growth at 10 µM (BT-549): < 10%; inhibition of growth at 10 µM (IGROV-1): < 10%; zone of inhibition at 5000 µg/mL (Escherichia coli): 5 mm; zone of inhibition at 5000 µg/mL (Aspergillus flavus): < 2 mm; inhibition of growth at 10 µM (SF-268): < 10%; inhibition of growth at 10 µM (HL-60(TB)): 18.4%; inhibition of growth at 10 µM (HCT-15): < 10%; inhibition of growth at 10 µM [5]: < 10%; inhibition of growth at 10 µM (OVCAR-5): < 10%; mortality at 24 h, 100 ug/mL [6]: 70%; LC90 (Artemia salina): 777.87 µg/mL (≈ 3020 µM); LC50 at 24 h [7]: 432 µg/mL (≈ 1680 µM); inhibition of growth at 10 µM (A549): < 10%; inhibition of growth at 10 µM (CAKI-1): < 10%; inhibition of growth at 10 µM (SN12C): < 10%
3 | N#Cc1cnc2sc(S(N)(=O)=O)nn2c1=N | < 10 | < 10 | < 10 | 96.6 | < 10 | < 10 | 11 | < 10 | 20.3 | < 10 | < 10 | < 10 | 73.3 | < 10 | < 10 | < 10 | < 10 | < 10 | < 10 | < 10 | inhibition of growth at 10 µM (RXF 393): < 10%; inhibition of growth at 10 µM [4]: < 10%; inhibition of growth at 10 µM (OVCAR-4): < 10%; inhibition of growth at 10 µM (SNB-19): < 10%; inhibition of growth at 10 µM (SF-295): < 10%; inhibition of growth at 10 µM (BT-549): < 10%; inhibition of growth at 10 µM (IGROV-1): < 10%; zone of inhibition at 5000 µg/mL (Escherichia coli): < 2 mm; zone of inhibition at 5000 µg/mL (Aspergillus flavus): < 2 mm; inhibition of growth at 10 µM (SF-268): < 10%; inhibition of growth at 10 µM (HL-60(TB)): 29.3%; inhibition of growth at 10 µM (HCT-15): < 10%; inhibition of growth at 10 µM [5]: < 10%; inhibition of growth at 10 µM (OVCAR-5): < 10%; mortality at 24 h, 100 ug/mL [6]: 80%; LC90 (Artemia salina): 754.4 µg/mL (≈ 2940 µM); LC50 at 24 h [7]: 419 µg/mL (≈ 1640 µM); inhibition of growth at 10 µM (A549): < 10%; inhibition of growth at 10 µM (CAKI-1): 11.5%; inhibition of growth at 10 µM (SN12C): < 10%
